In PubChem BioAssay AID200 (DTP/NCI, 2004):
Values joined by “and” are separate entries in the source; they are usually repeats but may differ in a detail not shown here. Equal values may be shown once. Toxic doses and inconclusive results are not listed. Where a SMILES comes first, the peptide text is derived from it. The star is where a group is joined. Boc = CC(C)(C)OC(=O)*

Test system: B6C3F1 mice, B16 melanoma ip, median survival T/C
Experiment: NCI In Vivo Anticancer Drug Screen. Data for tumor model B16 Melanoma (intraperitoneal) in B6C3F1 mice
Conditions: endpoint: median survival time, higher = longer survival
Procedure, shortened: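 Values are T/C ratios: the measurement in treated animals divided by that in vehicle-treated controls, using survival or tumor size in mice carrying transplantable tumors.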

[1] = dose: 30.0 mg/kg/injection, schedule: Q01DX001 (ip), vehicle: saline
[2] = dose: 60.0 mg/kg/injection, schedule: Q01DX001 (ip), vehicle: saline
[3] = dose: 50.0 mg/kg/injection, schedule: Q01DX009 (ip), vehicle: saline
[4] = dose: 100.0 mg/kg/injection, schedule: Q01DX009 (ip), vehicle: saline
[5] = dose: 50.0 mg/kg/injection, schedule: Q01DX009 (ip), vehicle: saline with Tween-80
[6] = dose: 100.0 mg/kg/injection, schedule: Q01DX009 (ip), vehicle: saline with Tween-80
[7] = dose: 25.0 mg/kg/injection, schedule: Q01DX009 (ip), vehicle: Klucel (hydroxypropylcellulose) (HPC)
[8] = dose: 50.0 mg/kg/injection, schedule: Q01DX009 (ip), vehicle: Klucel (hydroxypropylcellulose) (HPC)
[9] = dose: 100.0 mg/kg/injection, schedule: Q01DX009 (ip), vehicle: Klucel (hydroxypropylcellulose) (HPC)
[10] = dose: 200.0 mg/kg/injection, schedule: Q01DX009 (ip), vehicle: Klucel (hydroxypropylcellulose) (HPC)
[11] = dose: 400.0 mg/kg/injection, schedule: Q01DX009 (ip), vehicle: Klucel (hydroxypropylcellulose) (HPC)
[12] = dose: 12.5 mg/kg/injection, schedule: Q01DX009 (ip), vehicle: Klucel (hydroxypropylcellulose) (HPC)
[13] = dose: 200.0 mg/kg/injection, schedule: Q01DX009 (ip), vehicle: saline with Tween-80
[14] = dose: 12.5 mg/kg/injection, schedule: Q01DX009 (ip), vehicle: saline with Tween-80
[15] = dose: 25.0 mg/kg/injection, schedule: Q01DX009 (ip), vehicle: saline with Tween-80
[16] = dose: 6.25 mg/kg/injection, schedule: Q01DX009 (ip), vehicle: water
[17] = dose: 1.56 mg/kg/injection, schedule: Q01DX009 (ip), vehicle: saline
[18] = dose: 3.12 mg/kg/injection, schedule: Q01DX009 (ip), vehicle: saline
[19] = dose: 6.25 mg/kg/injection, schedule: Q01DX009 (ip), vehicle: saline
[20] = dose: 25.0 mg/kg/injection, schedule: Q01DX009 (ip), vehicle: saline

`O=NN(CCF)C(=O)NC1CCC(=O)NC1=O` (stereo not given) was tested, and the T/C (dose: 7.5 mg/kg/injection, schedule: Q01DX001 (ip), vehicle: saline) was 192 % of control, the T/C (dose: 15.0 mg/kg/injection, schedule: Q01DX001 (ip), vehicle: saline) was 194 % of control and the T/C [1] was 235 % of control. For the same molecule, the T/C [2] was 233 % of control.
For `NCCC(=O)NC(Cc1cnc[nH]1)C(=O)O` (stereo not given), the T/C [3] was 102 % of control, the T/C [4] was 104 % of control and the T/C (dose: 200.0 mg/kg/injection, schedule: Q01DX009 (ip), vehicle: saline) was 103 % of control. The T/C (dose: 400.0 mg/kg/injection, schedule: Q01DX009 (ip), vehicle: saline) was 104 % of control.
In the case of `CCSc1ncnc2c1ncn2C1OC(CO)C(O)C1O` (stereo not given), the T/C [5] is reported as 93 % of control and the T/C [6] is reported as 95 % of control.
`O=C1N[C@H]2[C@H](CS[C@H]2CCCCC(=O)N(CCP(c2ccccc2)c2ccccc2)CCP(c2ccccc2)c2ccccc2)N1` was tested, and the T/C [7] was 110 % of control and 97 % of control, the T/C [8] was 109 % of control and 101 % of control and the T/C [9] was 105 % of control. For the same molecule, the T/C [10] was 113 % of control and the T/C [11] was 101 % of control.
In the case of `CSc1cc(C)[o+]c(C)c1`, the T/C [12] is reported as 106 % of control, the T/C [7] is reported as 105 % of control and the T/C [8] is reported as 106 % of control. The T/C [9] was 109 % of control and the T/C [10] was 101 % of control.
For `CN=C(N)c1ccc(N=C(N)c2ccc(C(N)=Nc3ccc(C(N)=NC)cc3)cc2)cc1`, the T/C (dose: 7.5 mg/kg/injection, schedule: Q01DX009 (ip), vehicle: saline) was 95 % of control and the T/C (dose: 15.0 mg/kg/injection, schedule: Q01DX009 (ip), vehicle: saline) was 89 % of control.
`O=c1cc(-c2ccccc2)[nH]c2c1CCCC2` was tested, and the T/C [6] was 109 % of control and the T/C [13] was 117 % of control.
With `CSCCC(NC(=O)C(CC(C)C)NC(=O)OC(C)(C)C)C(N)=O` (stereo not drawn) (Boc-Leu-Met-NH2; configuration not given here) the T/C [8] was 86 % of control, the T/C [9] was 98 % of control and 102 % of control and the T/C [10] was 97 % of control and 100 % of control. The T/C [11] was 101 % of control.
For `NC(Cc1ccc(O)cc1)C(=O)O` (stereo not given), the T/C [14] was 102 % of control, the T/C [15] was 113 % of control and the T/C [8] was 120 % of control. The T/C [5] was 113 % of control, the T/C [9] was 99 % of control and the T/C [6] was 103 % of control. For the same molecule, the T/C [10] was 109 % of control, the T/C [13] was 98 % of control and the T/C [11] was 96 % of control. The T/C (dose: 400.0 mg/kg/injection, schedule: Q01DX009 (ip), vehicle: saline with Tween-80) was 103 % of control.
For `COc1cccc2c1C(=O)c1c(O)c3c(c(O)c1C2=O)CC(O)(/C(C)=N/NC(=O)CCCCC(=O)N/N=C(\C)C1(O)Cc2c(O)c4c(c(O)c2C(OC2CC(N)C(O)C(C)O2)C1)C(=O)c1c(OC)cccc1C4=O)CC3OC1CC(N)C(O)C(C)O1` (stereo not given), the T/C (dose: 1.56 mg/kg/injection, schedule: Q01DX009 (ip), vehicle: water) was 191 % of control, the T/C (dose: 3.12 mg/kg/injection, schedule: Q01DX009 (ip), vehicle: water) was 216 % of control and the T/C [16] was 335 % of control.
`CCC(C(=O)O)C(=O)O.[NH2-].[NH2-].[Pt+2]` was tested, and the T/C [17] was 117 % of control, the T/C [18] was 102 % of control and the T/C [19] was 102 % of control. The T/C [20] was 154 % of control and the T/C [3] was 102 % of control.
In the case of `Cc1cc(Br)c2nsnc2c1[N+](=O)[O-]`, the T/C [15] is reported as 95 % of control, the T/C [5] is reported as 95 % of control and the T/C [6] is reported as 103 % of control. For the same molecule, the T/C [13] was 90 % of control.
For `ClCc1ccc(Oc2ccc(CCl)cc2)cc1`, the T/C (dose: 3.12 mg/kg/injection, schedule: Q01DX009 (ip), vehicle: Klucel (hydroxypropylcellulose) (HPC)) was 101 % of control, the T/C (dose: 6.25 mg/kg/injection, schedule: Q01DX009 (ip), vehicle: Klucel (hydroxypropylcellulose) (HPC)) was 98 % of control and the T/C [12] was 107 % of control. The T/C [7] was 112 % of control and the T/C [8] was 93 % of control.
`O=NNc1ncc(Br)cc1Br` was tested, and the T/C [16] was 108 % of control, the T/C (dose: 12.5 mg/kg/injection, schedule: Q01DX009 (ip), vehicle: water) was 114 % of control and the T/C (dose: 25.0 mg/kg/injection, schedule: Q01DX009 (ip), vehicle: water) was 110 % of control. The T/C (dose: 100.0 mg/kg/injection, schedule: Q01DX009 (ip), vehicle: water) was 98 % of control.
`CC(=O)Nc1ccc(C(O)C2=CC(=O)c3ccccc3C2=O)cc1` (stereo not given) was tested, and the T/C [20] was 102 % of control, the T/C [3] was 88 % of control and the T/C [4] was 94 % of control.
`O=CC=O` was tested, and the T/C [14] was 114 % of control, the T/C [15] was 110 % of control and the T/C [5] was 102 % of control and 108 % of control. The T/C [6] was 114 % of control and 106 % of control and the T/C [13] was 120 % of control and 108 % of control.
For `COC12C(COC(N)=O)C3=C(C(=O)C(C)=C(N)C3=O)N1CC1C2N1C` (stereo not given), the T/C (dose: 1.0 mg/kg/injection, schedule: Q01DX009 (ip), vehicle: saline) was 112 % of control and 99 % of control, the T/C (dose: 2.0 mg/kg/injection, schedule: Q01DX009 (ip), vehicle: saline) was 88 % of control and the T/C (dose: 8.0 mg/kg/injection, schedule: Q01DX009 (ip), vehicle: saline) was 111 % of control and 89 % of control.
For `CCN(CC)CCCNc1nccc2c(C)c3[nH]c4ccncc4c3cc12`, the T/C (dose: 0.38 mg/kg/injection, schedule: Q01DX009 (ip), vehicle: other) was 176 % of control, the T/C (dose: 0.75 mg/kg/injection, schedule: Q01DX009 (ip), vehicle: other) was 170 % of control and the T/C (dose: 1.5 mg/kg/injection, schedule: Q01DX009 (ip), vehicle: other) was 180 % of control. For the same molecule, the T/C (dose: 3.0 mg/kg/injection, schedule: Q01DX009 (ip), vehicle: other) was 202 % of control and the T/C (dose: 6.0 mg/kg/injection, schedule: Q01DX009 (ip), vehicle: other) was 257 % of control.
In the case of `CCCCCCCCCCCCCCCC(=O)OCC1OC(n2ccc(N)nc2=O)C(O)C1O` (stereo not given), the T/C (dose: 3.75 mg/kg/injection, schedule: Q01DX009 (ip), vehicle: saline with Tween-80) is reported as 117 % of control and the T/C (dose: 7.5 mg/kg/injection, schedule: Q01DX009 (ip), vehicle: saline with Tween-80) is reported as 113 % of control and 121 % of control.
`CCc1ncnc2cc(OCC3CO3)c(OC)cc12` (stereo not given) was tested, and the T/C (dose: 6.25 mg/kg/injection, schedule: Q01DX009 (ip), vehicle: suspension in saline) was 118 % of control and the T/C (dose: 50.0 mg/kg/injection, schedule: Q01DX009 (ip), vehicle: suspension in saline) was 117 % of control.
In the case of `NC(N)=NCCCC(NC(=O)c1ccccc1)C(=O)O` (stereo not given), the T/C (dose: 40.0 mg/kg/injection, schedule: Q01DX009 (ip), vehicle: saline with Tween-80) is reported as 95 % of control and 102 % of control (2×), the T/C (dose: 80.0 mg/kg/injection, schedule: Q01DX009 (ip), vehicle: saline with Tween-80) is reported as 122 % of control and 95 % of control and 96 % of control and the T/C (dose: 160.0 mg/kg/injection, schedule: Q01DX009 (ip), vehicle: saline with Tween-80) is reported as 108 % of control and 102 % of control. For the same molecule, the T/C (dose: 320.0 mg/kg/injection, schedule: Q01DX009 (ip), vehicle: saline with Tween-80) was 108 % of control and 105 % of control and 106 % of control and the T/C (dose: 640.0 mg/kg/injection, schedule: Q01DX009 (ip), vehicle: saline with Tween-80) was 113 % of control.
For `OCCN1CCN(CC/C=C2/c3ccccc3Sc3ccc(Cl)cc32)CC1`, the T/C [17] was 101 % of control, the T/C [18] was 102 % of control and the T/C [19] was 103 % of control and 105 % of control. The T/C (dose: 12.5 mg/kg/injection, schedule: Q01DX009 (ip), vehicle: saline) was 93 % of control and 106 % of control and the T/C [20] was 100 % of control.
In the case of `O=CC(NC(=O)N(CCF)N=O)C(O)C(O)C(O)CO` (stereo not given), the T/C [1] is reported as 169 % of control, the T/C [2] is reported as 210 % of control and the T/C (dose: 120.0 mg/kg/injection, schedule: Q01DX001 (ip), vehicle: saline) is reported as 204 % of control.
`CC(C)(C)OC(=O)N1CCCC1C(=O)O` (stereo not given) was tested, and the T/C (dose: 22.5 mg/kg/injection, schedule: Q01DX009 (ip), vehicle: Klucel (hydroxypropylcellulose) (HPC)) was 100 % of control, the T/C (dose: 45.0 mg/kg/injection, schedule: Q01DX009 (ip), vehicle: Klucel (hydroxypropylcellulose) (HPC)) was 102 % of control and the T/C (dose: 90.0 mg/kg/injection, schedule: Q01DX009 (ip), vehicle: Klucel (hydroxypropylcellulose) (HPC)) was 90 % of control.
